# Numbers after ± are expanded uncertainties.
# What was measured:
# [1] = 101 kPa, Liquid; for viscosity: Capillary tube (Ostwald / Ubbelohde) method; for speed of sound: Sing-around technique in a fixed-path interferometer
# [2] = xn = mol fraction of the nth substance listed; settings: 101 kPa, Liquid, x2 = 0; for viscosity: Capillary tube (Ostwald / Ubbelohde) method; for speed of sound: Sing-around technique in a fixed-path interferometer
mass density ([1]; 298.15 K) [kg/m3],viscosity ([1]; 298.15 K) [mPa·s],speed of sound ([1]; 298.15 K) [m/s],mass density ([1]; 303.15 K) [kg/m3],speed of sound ([1]; 303.15 K) [m/s],mass density ([1]; 308.15 K) [kg/m3],speed of sound ([1]; 308.15 K) [m/s],viscosity ([2]; 298.15 K) [mPa·s],speed of sound ([2]; 298.15 K) [m/s],mass density ([2]; 298.15 K) [kg/m3],speed of sound ([2]; 303.15 K) [m/s],mass density ([2]; 303.15 K) [kg/m3],speed of sound ([2]; 308.15 K) [m/s],mass density ([2]; 308.15 K) [kg/m3],Structure (SMILES)
698.58 ± 0.77,0.518 ± 0.007,1172.7 ± 0.8,694.497 ± 0.78,1152.1 ± 0.8,690.416 ± 0.78,1131.7 ± 0.8,,,,,,,,CCCCCCCC [octane]
655.072 ± 0.92,0.313 ± 0.007,1077.8 ± 1.2,650.369 ± 0.92,1055.2 ± 1.2,645.767 ± 0.93,1032.9 ± 1.1,,,,,,,,CCCCCC [hexane]
726.806 ± 1.7,0.852 ± 0.015,1234.8 ± 3.1,723.042 ± 1.7,1215.2 ± 3.1,719.23 ± 1.7,1195.6 ± 3.1,,,,,,,,CCCCCCCCCC [decane]
,,,,,,,0.518 ± 0.007,1172.7 ± 0.8,698.58 ± 0.77,1152.1 ± 0.8,694.497 ± 0.78,1131.7 ± 0.8,690.416 ± 0.78,CCCCCCCC [octane] + CCCCCCCCO
,,,,,,,0.313 ± 0.007,1077.8 ± 1.2,655.072 ± 0.92,1055.2 ± 1.2,650.369 ± 0.92,1032.9 ± 1.1,645.767 ± 0.93,CCCCCC [hexane] + CCCCCCCCO
,,,,,,,0.852 ± 0.015,1234.8 ± 3.1,726.806 ± 1.7,1215.2 ± 3.1,723.042 ± 1.7,1195.6 ± 3.1,719.23 ± 1.7,CCCCCCCCCC [decane] + CCCCCCCCO
821.813 ± 0.54,7.508 ± 0.042,1348 ± 0.8,818.796 ± 0.54,1330.8 ± 0.8,815.286 ± 0.55,1314.1 ± 0.8,,,,,,,,CCCCCCCCO [octan-1-ol]

# From the NIST ThermoML archive (doi:10.1016/j.jct.2008.02.005)
